# Laboratory results from paper PMC10094648, “Short, Lipidated Dendrimeric γ-AApeptides as New Antimicrobial Peptidomimetics” (International Journal of Molecular Sciences, 2023).
# Read-outs that look alike come from different tables or passages of the source.
# Tests used:
# [1] = tested on: MRSA; experiment: Drug resistance study (serial passages); type: cell-based, methicillin-resistant Staphylococcus aureus; conditions: after 14 generations
# Experimental: Since the abuse of antibiotics, antibacterial drug resistance has become an increasingly serious threat. Thus, it is of great importance to assess the drug resistance of newly developed lead compounds.
# The first generation of MIC data of YW-1 against MRSA and E. coli was already obtained in an MIC study. Then, the MRSA of the first generation in the well next to the last clear well was diluted to the mid-log phase, and MICs were tested at 37 °C. This step was repeated for 14 passages. The data of drug resistance for E. coli were obtained using the same method with bacterial E. coli.
# [2] = tested on: MRSA (ATCC 33591); type: cell-based, methicillin-resistant Staphylococcus aureus
# Experimental: (§1) Chemical reagents and solvents were bought from Sigma Aldrich, Oakwood, TCI, and Chem-Impex. Final products were purified with Waters Breeze 2 HPLC and lyophilized using Labconco lyophilizer. HPLC traces of the final product were collected using 5–95% acetonitrile in water with 0.1% HPLC-grade TFA for at least 40 min. The nuclear magnetic resonance (NMR) data were collected using the Agilent 600 MHz NEO instrument. High-resolution mass spectra of compounds (Table S1) were collected using an Agilent Technologies 6540 UHD accurate-mass Q-TOF LC/MS spectrometer. Antibacterial assays and mechanism of action studies were performed using a Biotec multimode microplate reader synergy H4. Six different species of bacteria were used for bacteria assay tests, such as MRSA (ATCC 33591), MRSE (RP62A), VREF (ATCC 700802), E. coli (ATCC 25922), K. pneumoniae (ATCC 13383), and P. aeruginosa (ATCC 27853).
# (§2) Concisely, E. coli, K. pneumoniae, P. aeruginosa, MRSA, MRSE, and VREF were cultivated in 37 °C TSB medium for 16 h. Subsequently, 4 ml of new TSB medium was added to 100 μL of cultivated bacterial solution and incubated for another 6 h to reach the mid-log phase. Next, 96-well plates were injected with 50 μL of bacterial solution that reached mid-log phase and 50 μL of compounds with different concentrations, which ranged from 0.75–25 μg/mL. Then, the 96-wells plates were incubated for another 16 h at 37 °C. After 16 h, MICs were determined by a multimode microplate reader.
# [3] = tested on: Human red blood cells; conditions: red cells of human, 1 h
# Experimental: (§10) Human red blood cells were washed with 1 × PBS buffer, then centrifuged at 700 g for 10 min. After discarding the top clear solution, the bottom cells were diluted to obtain 5% solution using 1 × PBS buffer.
# (§11) Then, 50 μL of cell solution was injected into 96-well plates. Following this, 50 μL of synthesized compounds with different concentrations from 250 to 1.95 μg/mL were added into 96-well plates. Then, the mixture was incubated for 1 h at 37 °C. After centrifuging at 3500× g rpm for 10 min, 30 μL of the supernatant was transferred into a new 96-well plate with 100 μL of 1 × PBS buffer. With the same microplate reader, the data of absorbance at 540 nm were compared. Positive control: 2% Triton-100. Calculation formula: percentage of hemolysis = [(Absorbance of sample-Absorbance of PBS)/(Absorbance of Triton-Absorbance of PBS)] × 100
# [4] = tested on: E. coli; experiment: Time-kill kinetics study; type: cell-based; conditions: 4 × MIC and 8 × MIC, TSB medium
# Experimental: (§3) To evaluate how rapidly bacteria could be eradicated, the lead compound YW-1 was examined for its ability to eradicate MRSA and E. coli by studying the time-kill kinetics.
# (§4) Different concentrations of YW-1 and ciprofloxacin were mixed with 300 μL of mid-log phase bacterial solution in TSB medium. The mixture was incubated for 0, 10, and 30 min and 1 and 2 h, respectively. At the time, E. coli were diluted 100-fold, and the MRSA was diluted 100-fold. A total of 100 μL of each was transferred on TSB agar plates. After 16 h at 37 °C, CFUs were read using the Biotec multimode microplate reader.
# [5] = tested on: E. coli; experiment: Transmission electron microscopy (TEM); type: cell-based; conditions: 2 × MIC, 2 h
# Experimental: (§5) TEM microscopy offers convenient access to check the intactness of cell membranes. The cell membranes of MRSA and E. coli were intact.
# (§6) An amount of 30 μL of mid-log phase MRSA and E. coli was diluted to 3 mL in TSB medium with 2 × MIC of YW-1, and the mixture was incubated for 2 h. The bacterial pellets were centrifuged at 3000× g rpm for 10 min. For the next step, PBS buffer was used to wash three times. Then, the suspended bacterial samples were dropped on grids and dried in a vacuum oven at 45 °C. TEM images were obtained using a FEI Morgagni 268D TEM, with an Olympus MegaView III CAMERA on the microscope, at 60 kV.
# [6] = tested on: E. coli; experiment: Fluorescence microscopy (DAPI / PI staining); type: cell-based; conditions: 2 × MIC, 2 h at 37 °C, PI channel
# Experimental: (§7) To further assess that the bacteria were killed with YW-1 by comprising the cell membrane, we conducted a fluorescence microscopy experiment. Two dyes, 4′,6-diamidino-2-phenylindole (DAPI) and propidium iodide (PI), were employed in this experiment. […] Instead, DAPI can be used to stain both dead and live cells because it is cell-permeable.
# (§8) A total of 30 μL of mid-log phase bacterial solution was diluted to 3 mL in TSB medium with 2 × MIC of YW-1. The mixture was incubated for 2 h at 37 °C. Following this, the bacterial solution was centrifuged at 3000 rpm for 10 min. The top solution was thrown away, the bottom bacterial pellets were washed with PBS buffer, and PI (5 μg/mL) and DAPI (10 μg/mL) were added sequentially on ice under a dark environment. After dyeing with PI and DAPI, the bacterial cells were washed with PBS buffer. Immediately after 100 μL of PBS was added to suspend the bacterial cell, 10 μL of the suspended solution was dropped onto the slide, and data were obtained using a Zeiss Axiovert 200 inverted microscope.
# [7] = tested on: E. coli; experiment: Outer membrane (OM) permeabilization (NPN uptake); type: cell-based; conditions: 1 × MIC, compared with 1% Triton
# From the text: Next, using E. coli as a microorganism, we evaluated the OM permeabilization of YW-1. In aqueous conditions, 1-N-Phenylnaphthylamine (NPN) is blocked by the cell wall. However, if the OM is permeabilized, and NPN is taken up as a result, the fluorescence intensity will increase, compared to non-treated OM [13].
# [8] = tested on: E. coli; experiment: Membrane depolarization study (diSC35 dye); type: cell-based
# From the text: (§9) To probe the mechanism of antibacterial activity, we first carried out a membrane depolarization study with the membrane potential-sensitive dye 3,3′-dipropylthiadicarbocyanine iodide (diSC35) (Figure 2A,B). […] However, if the membrane is disrupted, and the fluorophore is released from the membrane, fluorescence will improve dramatically.
# [9] = tested on: MRSA; experiment: Time-kill kinetics study; type: cell-based, methicillin-resistant Staphylococcus aureus; conditions: 4 × MIC and 8 × MIC, TSB medium
# Experimental: as §3, §4
# [10] = tested on: MRSA; experiment: Fluorescence microscopy (DAPI / PI staining); type: cell-based, methicillin-resistant Staphylococcus aureus; conditions: 2 × MIC, 2 h at 37 °C, PI channel
# Experimental: as §7, §8
# [11] = tested on: Human red blood cells; experiment: Hemolytic activity; conditions: HC50 over MIC against MRSA
# Experimental: as §10, §11
# [12] = tested on: MRSA; experiment: Membrane depolarization study (diSC35 dye); type: cell-based, methicillin-resistant Staphylococcus aureus
# From the text: as §9
# [13] = tested on: E. coli; experiment: Inner membrane (IM) permeabilization (ONPG hydrolysis assay); type: cell-based; conditions: 8 × MIC, 4 × MIC, 2 × MIC and 1 × MIC, 37 °C
# Experimental: We next used the o-nitrophenyl-β-d-galactopyranoside (ONPG) hydrolysis assay to test the ability of the lead compound YW-1 to permeabilize the inner membrane of Gram-negative bacteria (Figure 3B). If the lead compound YW-1 compromised the bacterial inner membrane, ONPG would interact with the cytoplasmic enzyme β-galactosidase to form o-nitrophenol, which can be measured under OD 420 nm.
# Mid-log phase E. coli was obtained in Mueller Hinton Broth with 2% lactose at 37 °C; then, it was centrifuged at 3000× g rpm for 10 min at 4 °C and washed with 20 mM glucose and 1.5 mM ONPG in […] HEPES buffer one time. Next, the bacterial solution was diluted until OD600 = 0.1 using the same buffer. Following this, 50 μL of diluted bacterial solution was injected into a 96-well plate, and 50 μL of YW-1 in different concentrations and melittin were injected into the bacterial solution, respectively. The OD420 was read at 37 °C every 6 min until the […] reached the highest plateau.
# [14] = tested on: K. pneumoniae (ATCC 13383); type: cell-based; conditions: ATCC 13383, 16 h
# Experimental: as §1, §2
# [15] = tested on: MRSE (RP62A); type: cell-based; conditions: 16 h
# Experimental: as §1, §2
# [16] = tested on: P. aeruginosa (ATCC 27853); type: cell-based; conditions: ATCC 27853, 16 h
# Experimental: as §1, §2
# [17] = tested on: E. coli (ATCC 25922); type: cell-based; conditions: ATCC 25922, 16 h
# Experimental: as §1, §2
# [18] = tested on: E.F. (VREF, ATCC 700802); type: cell-based; conditions: ATCC 700802, 16 h
# Experimental: as §1, §2
# [19] = tested on: MRSA; experiment: Transmission electron microscopy (TEM); type: cell-based, methicillin-resistant Staphylococcus aureus; conditions: 2 × MIC, 2 h
# Experimental: as §5, §6
# [20] = TSB medium, 16 h at 37 °C, compounds 0.75–25 μg/mL, microplate reader
Structure (SMILES),"MIC, Gram-Positive (+), MRSA ([2]; ATCC 33591, 16 h)",HC50 [3],Selectivity Index (HC50/MICMRSA) [11],"MIC, Gram-Negative (−), K.P. [14]","MIC, Gram-Positive (+), MRSE [15]","MIC, Gram-Negative (−), P.A. [16]","MIC, Gram-Negative (−), E. coli [17]","MIC, Gram-Positive (+), E.F. [18]","MIC, Gram-Positive (+), MRSA [2, 20]",also measured
CCCCCCCCCCCCCCCC(=O)N[C@@H](CC(C)C)CN(CC(N)=O)C(=O)CCN(C[C@@H](N)CCCCN)C(=O)CCN [YW-1],1.5 to 3 µg/mL,>125 µg/mL,>41.7,12.5 to 25 µg/mL,1.5 to 3 µg/mL,6 to 12.5 µg/mL,3.0 to 6.0 µg/mL,1.5 to 3 µg/mL,–,"increase in MIC (drug resistance) [1]: did not have an obvious change in MIC; time to remove bacteria thoroughly [4]: ≤ 2 h; membrane intactness by TEM [5]: the membranes clearly demonstrated damages; PI staining (compromised membrane) [6]: red fluorescence was observed under the PI channel; Outer membrane permeability [7]: 98%; fluorescence intensity of diSC35 (membrane depolarization) ([8]; E. coli treated with different concentrations): dose-dependent increases in fluorescence intensity; fluorescence of diSC35 compared with positive control Triton ([8]; E. coli, at a two-fold of MIC or above): even more intensive fluorescence than the positive control Triton; time to remove bacteria thoroughly [9]: ≤ 2 h; PI staining (compromised membrane) [10]: red fluorescence was observed under the PI channel; fluorescence intensity of diSC35 (membrane depolarization) ([12]; MRSA treated with different concentrations): dose-dependent increases in fluorescence intensity; fluorescence of diSC35 compared with positive control Triton ([12]; MRSA, at a two-fold of MIC or above): even more intensive fluorescence than the positive control Triton; inner membrane permeabilization, OD 420 nm intensity [13]: enhanced to a great extent; membrane intactness by TEM [19]: the membranes clearly demonstrated damages"
CCCCCCCCCCCCCCCC(=O)N[C@@H](Cc1ccccc1)CN(CC(N)=O)C(=O)CCN(C[C@@H](N)CCCCN)C(=O)CCN [YW-2],1.5 to 3 µg/mL,>125 µg/mL,>41.7,6 to 12.5 µg/mL,1.5 to 3 µg/mL,12.5 to 25 µg/mL,3.0 to 6.0 µg/mL,1.5 to 3 µg/mL,–,–
CCCCCCCCCCCCCCCC(=O)N[C@@H](C)CN(CC(N)=O)C(=O)CCN(C[C@@H](N)CCCCN)C(=O)CCN [YW-3],–,>125 µg/mL,>83.3,>25 µg/mL,6 to 12.5 µg/mL,6 to 12.5 µg/mL,3.0 to 6.0 µg/mL,3.0 to 6.0 µg/mL,0.75 to 1.5 µg/mL,–
CCCCCCCCCCCCCCCC(=O)N[C@@H](Cc1ccc(O)cc1)CN(CC(N)=O)C(=O)CCN(C[C@@H](N)CCCCN)C(=O)CCN [YW-4],–,>125 µg/mL,>83.3,>25 µg/mL,3.0 to 6.0 µg/mL,>25 µg/mL,3.0 to 6.0 µg/mL,3.0 to 6.0 µg/mL,0.75 to 1.5 µg/mL,–
CCCCCCCCCCCCCCCC(=O)N[C@@H](CO)CN(CC(N)=O)C(=O)CCN(C[C@@H](N)CCCCN)C(=O)CCN [YW-5],1.5 to 3 µg/mL,>125 µg/mL,>41.7,–,–,–,6 to 12.5 µg/mL,–,–,–
CCCCCCCCCCCCCCCC(=O)N[C@@H](CCCCN)CN(CC(N)=O)C(=O)CCN(C[C@@H](N)CCCCN)C(=O)CCN [YW-6],–,>125 µg/mL,>83.3,–,–,–,6 to 12.5 µg/mL,–,0.75 to 1.5 µg/mL,–
CCCCCCCCCCCCCCCC(=O)N[C@@H](CCCCNC(=N)N)CN(CC(N)=O)C(=O)CCN(C[C@@H](N)CCCCN)C(=O)CCN [YW-7],–,>125 µg/mL,>83.3,>25 µg/mL,3.0 to 6.0 µg/mL,12.5 to 25 µg/mL,3.0 to 6.0 µg/mL,3.0 to 6.0 µg/mL,0.75 to 1.5 µg/mL,–
"O=C(O)c1cn(C2CC2)c2cc(N3CCNCC3)c(F)cc2c1=O [ciprofloxacin, reference compound]",–,–,–,–,–,–,–,–,–,increase in MIC (drug resistance) [1]: about 100 fold
